Tests used:
[1] = physchem; conditions: octan-1-ol/water, pH 7.4, LogD7.4
[2] = in vitro; conditions: human, plasma, PPB

Row | Compound | logD [1] | fraction unbound at 5 h [2]
1 | Cc1cnc(Nc2cncc(N[C@@H](C)c3ncc(F)cn3)n2)s1 | 1.91 | 0.173
2 | Nc1nc2nc(-c3cccs3)cc(C(F)(F)F)n2n1 | 2.01 | 0.201
3 | N#Cc1c(N)nc2c(c1N)CC(COc1ccccc1)O2 (stereo not drawn) | 2.08 | 0.11
4 | CNC(=O)c1[nH]cnc1C(=O)Nc1ccc(OC)cc1 | 2.2 | 0.134
5 | Cc1ccc(-c2csc3ncnc(O)c23)cc1 | 2.59 | 0.0391
6 | Nc1ccc(OCCc2ccccc2)cc1 | 2.71 | 0.0343
7 | CC(C)CCOc1ccc(N)cc1 | 2.67 | 0.0676
8 | C[C@H](Nc1ncc(F)c(Nc2cc(C3CC3)[nH]n2)n1)c1ncc(F)cn1 | 2.47 | 0.224
9 | COc1cc(Nc2nc(N[C@@H](C)c3ncc(F)cn3)ncc2Cl)n[nH]1 | 2.53 | 0.121
10 | COc1cc(Nc2nc(N[C@@H](C)c3ncc(F)cn3)ncc2Br)n[nH]1 | 2.6 | 0.124
11 | Cc1cc(Nc2nc(N[C@@H](C)c3ncc(F)cn3)ncc2Br)n[nH]1 | 2.39 | 0.0854
12 | C[C@H](Nc1ncc(Cl)c(Nc2cc(N(C)C)[nH]n2)n1)c1ncc(F)cn1 | 2.33 | 0.105
13 | C[C@H](Nc1ncc(F)c(Nc2cc(N(C)C)[nH]n2)n1)c1ncc(F)cn1 | 1.98 | 0.22
14 | Cc1nc(C(=O)[C@H](C)Oc2ccc(SCCCCCc3ccccc3)cc2)sc1CCCC(=O)O | 2.03 | 0.007
15 | CC(C)[C@H](NC(=O)C[C@H](NC(=O)/C=C/c1ccccc1)c1ccccc1)C(=O)[C@@H]1C(=O)NC(=O)[C@H]1C | 1.91 | 0.016
16 | COc1ccnc(CCc2nc3cc(Br)cnc3[nH]2)c1 | 2.92 | 0.0409
17 | O=C(Cc1ccc(Oc2ccccc2)cc1)NO | 2.03 | 0.02
18 | CN[C@@H](C)C(=O)N[C@H](C(=O)N[C@H]1CCCCN(Cc2ccccc2)C1)C1CCCCC1 | 2.12 | 0.197

Row | Compound | logD [1] | fraction unbound at 5 h [2]
19 | CN[C@@H](C)C(=O)N[C@H](C(=O)N(C)[C@H]1CCCN(CCc2ccccc2)C1)C1CCCCC1 | 2.34 | 0.266
20 | CN[C@@H](C)C(=O)N[C@H](C(=O)N[C@H]1CCCN(CCc2ccccc2F)C1)C1CCCCC1 | 2.51 | 0.262
21 | CN[C@@H](C)C(=O)N[C@H](C(=O)N[C@H]1CCCN(CCc2ccc(F)cc2)C1)C1CCCCC1 | 2.39 | 0.266
22 | CN[C@@H](C)C(=O)N[C@H](C(=O)N[C@H]1CCCN(CCc2ccc(C(F)(F)F)cc2)C1)C(C)(C)C | 2.85 | 0.0928
23 | NS(=O)(=O)c1ccc(CCNc2ccc3nnc(-c4ccccc4)n3n2)cc1 | 2.19 | 0.0321
24 | CNc1c(Br)cnc2[nH]c(-c3ccc(S(C)(=O)=O)cc3)nc12 | 2.88 | 0.0477
25 | CNc1c(Br)cnc2nc(-c3ccnc(N)c3)[nH]c12 | 2.83 | 0.0268
26 | O=c1[nH]c([C@@H]2CCCN2)nc2c1oc1ccc(Br)cc12 | 2.19 | 0.051
27 | O=c1[nH]c([C@@H]2CCCN2)nc2c1oc1ccc(Cl)cc12 | 2.01 | 0.072
28 | CCOc1cccc(/C=C2\SC(=O)NC2=O)c1N1CCC[C@@H](N)C1 | 1.86 | 0.0521
29 | N#Cc1cnn2c(N)cc(-c3ccccc3)nc12 | 2.48 | 0.0499
30 | COc1ccc(-c2cc(N)n3ncc(C#N)c3n2)cc1 | 2.42 | 0.0676
31 | N#Cc1cnn2c(NC3CC3)cc(-c3cccs3)nc12 | 2.88 | 0.016
32 | CC(=O)Nc1ccc2ccn(-c3cc(NCCCCO)n4ncc(C#N)c4n3)c2c1 | 2.58 | 0.0409
33 | CC(C)Oc1cc(-n2cnc3cnc(N[C@@H](C)c4ncc(F)cn4)nc32)n[nH]1 | 2.41 | 0.309
34 | CC(=O)Nc1cccc(Nc2nc(NC3CC3)n3ncc(C#N)c3n2)c1 | 2.1 | 0.107
35 | O=C(O)CNCCNc1ccc(Cl)c(C(=O)NCC23CC4CC(CC(C4)C2)C3)c1 | 1.94 | 0.072
36 | COc1cnc(-c2ccccn2)nc1NC(C)C | 2.01 | 0.224

Other lines, results leading:

Row | logD [1] | fraction unbound at 5 h [2] | Compound
37 | 2.91 | 0.0676 | CC(=O)Nc1ccc(-c2ccnc(Nc3ccc(N4CCOCC4)cc3)n2)cc1
38 | 2.9 | 0.0467 | Cc1cnc(Nc2cc(N3CCN(C)CC3)nc(N[C@@H](C)c3ccc(F)cn3)n2)s1
39 | 2.26 | 0.117 | C[C@H](Nc1nc(Nc2ncc(C#N)s2)cc(N2CCOCC2)n1)c1ncc(F)cn1
40 | 2.68 | 0.0736 | Cc1cnc(Nc2cc(N3CCOCC3)nc(N[C@@H](C)c3ncc(F)cn3)n2)s1
41 | 2.78 | 0.0081 | NC(=O)c1cnc(N[C@H]2CCCNC2)c2cc(-c3ccc(Cl)cc3)sc12
42 | 2.76 | 0.0106 | NC(=O)c1cnc(N[C@H]2CCCNC2)c2cc(-c3ccc(Cl)c(F)c3)sc12
43 | 2.01 | 0.0262 | NC(=O)c1cnc(N[C@H]2CCCNC2)c2cc(-c3ccc(F)cc3)sc12
44 | 2 | 0.28 | O=C(CSc1nccn(-c2ccc(F)c(F)c2)c1=O)NC1CCCC1
45 | 2.9 | 0.0374 | COc1ccc(CC(=O)Nc2nc3ccccc3[nH]2)cc1
46 | 1.91 | 0.54 | Cc1cc(Nc2cc(N3CCOCC3)nc(N[C@@H](C)c3ncc(F)cn3)n2)[nH]n1
47 | 2.61 | 0.228 | Cc1cc(Nc2nc(N[C@@H](C)c3ncc(F)cn3)nc(N3CCOCC3)c2Cl)n[nH]1
48 | 2.18 | 0.276 | COc1cc(Nc2cc(N3CCOCC3)nc(N[C@@H](C)c3ncc(F)cn3)n2)n[nH]1
49 | 2.64 | 0.253 | COc1cc(Nc2nc(N[C@@H](C)c3ncc(F)cn3)nc(N3CCOCC3)c2F)[nH]n1
50 | 2.85 | 0.0784 | COc1cc(Nc2nc(N[C@@H](C)c3ncc(F)cn3)nc(N3CCOCC3)c2Cl)n[nH]1
51 | 2.84 | 0.0752 | Cc1cnc(Nc2ccc(N3CCN(C)CC3)cc2)nc1Nc1cccc(S(=O)(=O)NC(C)(C)C)c1
52 | 2.56 | 0.112 | CNc1c(Br)cnc2nc(-c3ccc(OCCN4CCCCC4)cc3)[nH]c12
53 | 2.96 | 0.0988 | CNc1c(Br)cnc2[nH]c(-c3cccc(N)c3)nc12
54 | 2.91 | 0.0383 | CNc1c(Br)cnc2nc(-c3ccc(OCCN4CCN(C)CC4)cc3)[nH]c12
55 | 2.14 | 0.212 | CNc1c(C(N)=O)cnc2[nH]c(-c3ccc(OCCN4CCOCC4)cc3)nc12
56 | 2.63 | 0.0191 | CNc1c(Cl)cnc2nc(-c3ccc(OCCN4CCOCC4)cc3)[nH]c12
57 | 1.9 | 0.0293 | COc1ccc(-c2nc3c(NCCCNC(=O)C4(CN)CC4)c(Br)cnc3[nH]2)cc1
58 | 2.23 | 0.0544 | N#Cc1cnn2c(N)cc(-c3ccc(F)cc3)nc12

Row | logD [1] | fraction unbound at 5 h [2] | Compound
59 | 2.97 | 0.0179 | COc1ccc(-c2cc(Nc3ccn(C)n3)n3ncc(C#N)c3n2)cc1
60 | 2.69 | 0.0251 | CC(=O)Nc1cnc2ccn(-c3cc(NC4CC4)n4ncc(C#N)c4n3)c2c1
61 | 2.24 | 0.0556 | CC(=O)Nc1ccc2ccn(-c3cc(NCCN4CCCC4)n4ncc(C#N)c4n3)c2c1
62 | 1.87 | 0.0676 | CC(=O)Nc1ccc2ccn(-c3cc(NCCCN4CCCC4)n4ncc(C#N)c4n3)c2c1
63 | 2.49 | 0.0179 | CS(=O)(=O)Cc1ccc2ccn(-c3cc(NC4CC4)n4ncc(C#N)c4n3)c2c1
64 | 2.74 | 0.212 | C[C@H](Nc1ccc2ncn(-c3cc(C4CC4)[nH]n3)c2n1)c1ncc(F)cn1
65 | 1.96 | 0.0358 | Cc1cn([C@H]2CCCN(S(=O)(=O)c3ccc(C(N)=O)c(Oc4cccc(Cl)c4)c3)C2)c(=O)[nH]c1=O
66 | 2.01 | 0.0081 | CN1CCCC1CCNC(=O)c1ccc(Nc2ncc3cc(-c4ccncc4)ccc3n2)cc1 (stereo not drawn)
67 | 2.49 | 0.0358 | C[C@@H](NC1=CC(=O)CNC1)c1ccc(Nc2ncc3cc(-c4ccncc4)ccc3n2)cc1
68 | 2.16 | 0.258 | Cc1ncc(-c2nc(Nc3ccc(C(=O)N4CC[C@H](N(C)C)C4)cc3)ncc2F)n1C(C)C
69 | 2.34 | 0.0179 | CCNC(=O)Nc1nc2cc(-c3cccnc3)ccc2[nH]1
70 | 2.83 | 0.0119 | Cc1ccc(NC(=O)c2ccc(Cl)c(C(F)(F)F)c2)cc1C(=O)Nc1cccnc1
71 | 2.18 | 0.253 | COc1cc2ncc(C(N)=O)c(Nc3ccc(F)cc3F)c2cc1N1CCN(C)CC1
72 | 2.24 | 0.151 | COCCOc1cc2ncc(C(N)=O)c(Nc3ccc(C)cc3F)c2cc1N1CCN(C)CC1
73 | 2.3 | 0.258 | CN1CCN(c2ccc3ncc(C(N)=O)c(Nc4ccc(F)cc4F)c3c2)CC1
74 | 2.63 | 0.244 | CN1CCN(c2cc3c(Nc4ccc(F)cc4F)c(C(N)=O)cnc3cc2F)CC1
75 | 2.74 | 0.089 | CCOc1cc2ncc(C(N)=O)c(Nc3ccc(F)cc3F)c2cc1N1CCC(O)CC1
76 | 2.13 | 0.0544 | O=C(c1cccc(Cc2n[nH]c(=O)c3ccccc23)c1)N1CCN(c2ncccn2)CC1
77 | 2.86 | 0.0594 | Cc1cc(Nc2nc(O[C@@H](C)c3ccc(F)cn3)c(C#N)nc2C)[nH]n1
78 | 2.72 | 0.0219 | Cc1cc(Nc2nc(O[C@H](C)c3ccc(F)cn3)c(C#N)nc2C)[nH]n1
79 | 2.99 | 0.013 | N#Cc1ccc2c(c1)NC(=O)C2c1ncnc2cc(OCCCN3CCOCC3)ccc12 (stereo not drawn)
